Patent publication EP1379283B1, “IDENTIFICATION OF TARGET-SPECIFIC FOLDING SITES IN PEPTIDES AND PROTEINS” (Palatin Technologies, Inc., priority 2000, dated 2002)
Square brackets hold non-standard residues; d marks the D form. Ends that are not written are not given here. Nle = CCCC[C@H](N)C(=O)O; Sar = CNCC(=O)O

What was measured:
[1] = biological target: T1, angiotensin-II receptor (Homo sapiens, UniProt P30556); test: angiotensin-II receptor binding, radioiodinated angiotensin II ligand, membranes of human neuroblastoma cells (KAN-TS); settings: for % Inhibition at 1 µM: KAN-TS cell membranes, 125I-Tyr4, Sar1, Ile8-Angiotensin II
T1 construct: cell membranes obtained from human neuroblastoma cells (KAN-TS); endogenous in cells; host or cells: KAN-TS human neuroblastoma cells (membranes)
T1 sequence (P30556 1-359): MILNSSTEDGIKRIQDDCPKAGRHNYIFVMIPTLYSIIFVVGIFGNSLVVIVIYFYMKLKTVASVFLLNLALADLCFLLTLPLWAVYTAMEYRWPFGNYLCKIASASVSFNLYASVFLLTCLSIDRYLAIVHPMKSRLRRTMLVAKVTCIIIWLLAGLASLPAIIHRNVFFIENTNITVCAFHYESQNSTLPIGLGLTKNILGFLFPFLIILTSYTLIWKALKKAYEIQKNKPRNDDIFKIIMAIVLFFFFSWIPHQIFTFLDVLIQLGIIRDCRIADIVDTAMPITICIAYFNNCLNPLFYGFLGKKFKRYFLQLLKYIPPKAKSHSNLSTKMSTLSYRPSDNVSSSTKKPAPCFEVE
Protocol: The screening of compounds for binding to the angiotensin-II receptor was performed using cell membranes obtained from human neuroblastoma cells (KAN-TS). The assay was performed in triplicates, generally as described in Example 4 for oxytocin, except for measurement of receptor bound radioactivity. For angiotensin, a radioiodinated tracer ligand was used (instead of a tritiated ligand), which radioiodinated tracer facilitated direct measurement of bound radioactivity using a gamma counter. A final 1-3 nM concentration of ^125I-Tyr^4, Sar^1, Ile^8-Angiotensin II ligand (obtained from Perkin Elemer - NEN Life Sciences) was used as radiotracer and angiotensin-II (1 µM final assay concentration) was used to measure non-specific binding. After filtration of the incubation medium, followed by washings, drying the filters and punching the filters into test tubes, the filters were counted for radioactivity in a gamma counter. An activity profile for the test compounds was generated by ability to inhibit specific binding of the radiotracer to its receptor.

[2] = biological target: T2, hMC3-R (Homo sapiens, UniProt P41968); test: competitive inhibition binding assay with 125I-NDP-alpha-MSH, hMC3-R membranes; settings: 0.4 nM 125I-NDP-alpha-MSH, mean of triplicate
T2 construct: expressed in transfected cells; host or cells: 293 cells
Protocol: (§1) Ac-Nle-Ala-His-D-Phe-Arg-Trp-NH2 is a known receptor-binding sequence for melanotropin receptors. The K, values for binding to MCR-1 and -4 were measured to be 0.1 µM and 2 µM respectively. A series of metallopeptides based on this sequence were synthesized by inserting a Cys residue after the 2 position and through the n+1 position and complexing the resulting Cys-containing peptide with an Re-oxo metal ion core as described Example 1. The resulting metallopeptides were screened for inhibiting the binding of 125-I-NDP-alpha-MSH radioligand using B-16 mouse melanoma cells for MCR-1 and cloned human MCR-[…] and -4 receptor transfected 293 cells.
(§2) The competitive inhibition binding assay was conducted using membranes prepared from hMC3-R, hMC4-R, hMC5-R, and B-16 mouse melanoma cells (containing MC1-R) using 0.4 nM ^125I-NDP-alpha-MSH (New England Nuclear, Boston, MA, USA) in 50 mM HEPES buffer containing 1 mM MgCl2, 2 mM CaCl2, and 5 mM KCI, at pH 7.2. The assay tube also contained a chosen concentration of the test peptide of this invention, complexed to a rhenium metal ion as indicated, for determining its efficacy in inhibiting the binding of ^125I-NDP-alpha-MSH to its receptor. Non-specific binding was measured by complete inhibition of binding of ^125I-NDP-alpha-MSH in the assay with the presence of 1 µM alpha-MSH. Incubation was for 90 minutes at room temperature, after which the assay mixture was filtered and the membranes washed three times with ice cold buffer. The filter was dried and counted in a gamma counter for remaining radioactivity bound to the membranes. 100% specific binding was defined as the difference in radioactivity (cpm) bound to cell membranes in the absence and presence of 1 µM alpha-MSH. The cpm obtained in presence of test compounds were normalized with respect to 100% specific binding to determine the percent inhibition of ^125I-NDP-alpha MSH binding. Each assay was conducted in triplicate and the actual mean valves are described in Table 2.

[3] = biological target: T3, hMC5-R (Homo sapiens, UniProt P33032); test: competitive inhibition binding assay with 125I-NDP-alpha-MSH, hMC5-R membranes; settings: 0.4 nM 125I-NDP-alpha-MSH, mean of triplicate
T3 construct: expressed in transfected cells; host or cells: 293 cells are named only for 'MCR-2, -3 and -4'; for MC5-R the host is inferred
Protocol: as §2

[4] = biological target: T4, hMC4-R (Homo sapiens, UniProt P32245); test: competitive inhibition binding assay with 125I-NDP-alpha-MSH, hMC4-R membranes; settings: 0.4 nM 125I-NDP-alpha-MSH, mean of triplicate
T4 construct: expressed in transfected cells; host or cells: 293 cells
Protocol: as §1, §2

[5] = biological target: T5, MC1-R (Mus musculus, UniProt Q01727); test: competitive inhibition binding assay with 125I-NDP-alpha-MSH, B-16 mouse melanoma cell membranes; settings: for % Inhibition at 1 µM MC-1: 0.4 nM 125I-NDP-alpha-MSH, B-16 mouse melanoma cell membranes, mean of triplicate; for receptor specificity MCR-1 versus MCR-4: conclusion from Table 2
T5 construct: B-16 mouse melanoma cells (containing MC1-R); endogenous in cells; host or cells: B-16 mouse melanoma cells (membranes)
Protocol: as §1, §2

[6] = biological target: T6, uPA receptor (Homo sapiens, UniProt Q03405); test: uPA receptor-binding assay using U937 cells and ATF as competitive ligand; settings: for % Inhibition at 1 µM: 1 µM metallopeptide, U937 cells, ATF as competitive receptor binding ligand
T6 construct: endogenous in cells; host or cells: U937 cells
T6 sequence (Q03405 23-335): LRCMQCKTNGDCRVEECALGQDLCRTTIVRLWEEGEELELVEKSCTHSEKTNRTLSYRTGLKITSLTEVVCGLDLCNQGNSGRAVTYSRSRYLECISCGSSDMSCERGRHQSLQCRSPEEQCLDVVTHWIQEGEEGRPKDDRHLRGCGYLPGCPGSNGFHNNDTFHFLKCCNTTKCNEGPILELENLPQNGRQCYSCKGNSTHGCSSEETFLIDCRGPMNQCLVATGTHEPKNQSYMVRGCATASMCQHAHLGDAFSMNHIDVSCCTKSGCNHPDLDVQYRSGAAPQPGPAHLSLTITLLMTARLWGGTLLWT

T4 sequence (P32245 whole entry): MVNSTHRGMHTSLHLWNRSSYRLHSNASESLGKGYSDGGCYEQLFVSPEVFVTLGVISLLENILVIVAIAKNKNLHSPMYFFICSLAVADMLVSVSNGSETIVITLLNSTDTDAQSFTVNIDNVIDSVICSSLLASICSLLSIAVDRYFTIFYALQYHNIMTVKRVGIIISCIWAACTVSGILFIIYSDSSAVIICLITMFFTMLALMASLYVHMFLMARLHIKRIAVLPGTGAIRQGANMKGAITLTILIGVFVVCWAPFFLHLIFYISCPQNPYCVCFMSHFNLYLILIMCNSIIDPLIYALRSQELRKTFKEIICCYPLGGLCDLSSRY
T3 sequence (P33032 whole entry): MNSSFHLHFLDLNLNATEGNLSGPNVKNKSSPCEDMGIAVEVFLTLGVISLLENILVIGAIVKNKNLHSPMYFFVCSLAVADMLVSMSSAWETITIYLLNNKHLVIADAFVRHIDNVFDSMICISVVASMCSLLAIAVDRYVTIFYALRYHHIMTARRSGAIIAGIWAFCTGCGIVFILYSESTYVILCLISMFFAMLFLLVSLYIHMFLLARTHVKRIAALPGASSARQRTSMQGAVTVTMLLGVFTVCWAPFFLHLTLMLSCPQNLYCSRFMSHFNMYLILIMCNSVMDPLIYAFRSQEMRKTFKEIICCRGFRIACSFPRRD
T5 sequence (Q01727 whole entry): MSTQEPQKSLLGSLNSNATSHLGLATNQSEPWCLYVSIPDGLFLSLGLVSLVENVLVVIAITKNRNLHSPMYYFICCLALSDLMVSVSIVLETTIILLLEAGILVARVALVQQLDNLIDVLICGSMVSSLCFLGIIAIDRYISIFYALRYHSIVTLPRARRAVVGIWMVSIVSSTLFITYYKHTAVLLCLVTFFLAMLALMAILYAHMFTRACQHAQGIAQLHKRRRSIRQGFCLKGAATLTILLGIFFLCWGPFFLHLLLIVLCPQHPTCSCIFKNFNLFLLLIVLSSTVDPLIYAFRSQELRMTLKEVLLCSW
T2 sequence (P41968 whole entry): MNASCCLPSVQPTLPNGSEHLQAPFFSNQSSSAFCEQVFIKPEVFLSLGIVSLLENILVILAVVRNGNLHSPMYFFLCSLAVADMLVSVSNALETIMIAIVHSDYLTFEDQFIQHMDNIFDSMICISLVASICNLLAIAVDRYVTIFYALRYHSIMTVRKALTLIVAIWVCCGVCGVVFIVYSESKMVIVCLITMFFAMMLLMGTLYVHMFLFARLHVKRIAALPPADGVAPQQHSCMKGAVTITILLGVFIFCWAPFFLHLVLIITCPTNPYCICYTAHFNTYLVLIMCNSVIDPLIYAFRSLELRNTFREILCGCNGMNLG

Substance	% Inhibition at 1 µM [1]	% Inhibition at 1 µM MC-3 [2]	% Inhibition at 1 µM MC-5 [3]	% Inhibition at 1 µM MC-4 [4]	% Inhibition at 1 µM MC-1 [5]	other results
Sar-Arg-Val-Cys-Tyr-Ile-His-Pro-Thr ([Sar]RVCYIHPT; not fully specified (bridges); printed as Sar-Arg-Val-Cys-Tyr-Ile-His-Pro-Thr; also: oxorhenium(V) metal complex) [SEQ ID NO:164]	1%	–	–	–	–	–
Sar-Arg-Val-Tyr-Ile-His-Cys-Pro-Thr ([Sar]RVYIHCPT; not fully specified (bridges); printed as Sar-Arg-Val-Tyr-Ile-His-Cys-Pro-Thr; also: oxorhenium(V) metal complex) [SEQ ID NO:161]	60%	–	–	–	–	–
Ac-[Nle]AHC[dF]RW-NH2	–	9%	58%	75%	84%	–
Sar-Arg-Val-Tyr-Ile-Cys-His-Pro-Thr ([Sar]RVYICHPT; not fully specified (bridges); printed as Sar-Arg-Val-Tyr-Ile-Cys-His-Pro-Thr; also: oxorhenium(V) metal complex) [SEQ ID NO:162]	20%	–	–	–	–	–
Sar-Arg-Val-Tyr-Cys-Ile-His-Pro-Thr ([Sar]RVYCIHPT; not fully specified (bridges); printed as Sar-Arg-Val-Tyr-Cys-Ile-His-Pro-Thr; also: oxorhenium(V) metal complex) [SEQ ID NO:163]	12%	–	–	–	–	–
Sar-Arg-Cys-Val-Tyr-Ile-His-Pro-Thr ([Sar]RCVYIHPT; not fully specified (bridges); printed as Sar-Arg-Cys-Val-Tyr-Ile-His-Pro-Thr; also: oxorhenium(V) metal complex) [SEQ ID NO:165]	1%	–	–	–	–	–
Sar-Arg-Val-Tyr-Ile-His-Cys-Gly-Thr ([Sar]RVYIHCGT; not fully specified (bridges); printed as Sar-Arg-Val-Tyr-Ile-His-Cys-Gly-Thr; also: oxorhenium(V) metal complex) [SEQ ID NO:166]	11%	–	–	–	–	percent inhibition compared with SEQ ID NO:161 ([1]; Gly substituted for Pro): significantly less
Ac-[Nle]ACH[dF]RW-NH2	–	47%	64%	71%	96%	–
Sar-Arg-Val-Tyr-Ile-His-Gly-Cys-Thr ([Sar]RVYIHGCT; not fully specified (bridges); printed as Sar-Arg-Val-Tyr-Ile-His-Gly-Cys-Thr; also: oxorhenium(V) metal complex) [SEQ ID NO:160]	5%	–	–	–	–	–
Ac-Val-Ser-Asn-Lys-Tyr-Phe-Ser-Asn-Ile-Cys-His-Trp-NH2 (Ac-VSNKYFSNICHW-NH2; not fully specified (bridges); printed as Ac-Val-Ser-Asn-Lys-Tyr-Phe-Ser-Asn-Ile-Cys-His-Trp-NH2; also: oxorhenium(V) N3S1 metal chelate (X-X-Cys)) [SEQ ID NO:11]	–	–	–	–	–	% Inhibition at 1 µM [6]: 0.0%
Ac-Val-Ser-Asn-Lys-Tyr-Phe-Ser-Asn-Ile-His-Cys-Trp-NH2 (Ac-VSNKYFSNIHCW-NH2; not fully specified (bridges); printed as Ac-Val-Ser-Asn-Lys-Tyr-Phe-Ser-Asn-Ile-His-Cys-Trp-NH2; also: oxorhenium(V) N3S1 metal chelate (X-X-Cys)) [SEQ ID NO:3]	–	–	–	–	–	% Inhibition at 1 µM [6]: 106.0%; relative potency in uPA receptor binding ([6]; compared with the other metallopeptides of Table 1): most potent
Ac-[Nle]AH[dF]RWC-NH2	–	70%	93%	98%	91%	receptor specificity MCR-1 versus MCR-4 [5]: binding both the MCR-1 and MCR-4 receptors
Ac-[Nle]AH[dF]CRW-NH2	–	15%	57%	66%	93%	–
Ac-[Nle]AH[dF]RCW-NH2	–	0%	0%	17%	96%	receptor specificity MCR-1 versus MCR-4 [5]: specific for the MCR-1 receptor but not the MCR-4 receptor
Ac-Val-Ser-Asn-Lys-Tyr-Phe-Cys-Ser-Asn-Ile-His-Trp-NH2 (Ac-VSNKYFCSNIHW-NH2; not fully specified (bridges); printed as Ac-Val-Ser-Asn-Lys-Tyr-Phe-Cys-Ser-Asn-Ile-His-Trp-NH2; also: oxorhenium(V) N3S1 metal chelate (X-X-Cys)) [SEQ ID NO:8]	–	–	–	–	–	% Inhibition at 1 µM [6]: 0.0%
